Assay results from the NIST ThermoML archive (doi:10.1016/j.jct.2017.03.004).

Assays:
[1] = for viscosity / mass density: 101 kPa, Liquid; for viscosity: Falling or rolling sphere viscometry; for mass density: Vibrating tube method
[2] = activity coefficient (dimensionless); of the first substance listed, at infinite dilution; xn = mol fraction of the nth substance listed; details: 101.33 kPa, Liquid, Chromatography, x1 = 0

N#C[N-]C#N.OCCC[n+]1ccccc1 [N-(3-hydroxypropyl)pyridinium dicyanamide]
[1]
Details | mass density [kg/m3] | viscosity [mPa·s]
298.15 K | 1171.01 | 115
303.15 K | 1167.78 | –
308.15 K | 1164.58 | 70.8
313.15 K | 1161.4 | –
318.15 K | 1158.23 | 47.1
323.15 K | 1155.09 | –
328.15 K | 1151.97 | 32.9
333.15 K | 1148.86 | –
338.15 K | 1145.77 | 23.4
343.15 K | 1142.69 | –
348.15 K | 1139.63 | 17.8
353.15 K | 1136.59 | –
358.15 K | 1133.57 | 14
363.15 K | 1130.58 | –
368.15 K | 1127.62 | –

Details | Glass transition temperature [°C]
[1], Glass, DSC | -81

C1CCOC1 [tetrahydrofuran] + N#C[N-]C#N.OCCC[n+]1ccccc1
[2]
Details | activity coefficient
318.15 K | 3.1
328.15 K | 3.25
338.15 K | 3.38
348.15 K | 3.53
358.15 K | 3.66
368.15 K | 3.79

c1ccsc1 [thiophene] + N#C[N-]C#N.OCCC[n+]1ccccc1
[2]
Details | activity coefficient
318.15 K | 2.6
328.15 K | 2.71
338.15 K | 2.81
348.15 K | 2.93
358.15 K | 3.03
368.15 K | 3.14

Cc1ccccc1 [toluene] + N#C[N-]C#N.OCCC[n+]1ccccc1
[2]
Details | activity coefficient
318.15 K | 8.44
328.15 K | 8.72
338.15 K | 9.03
348.15 K | 9.31
358.15 K | 9.58
368.15 K | 9.85

O [water] + N#C[N-]C#N.OCCC[n+]1ccccc1
[2]
Details | activity coefficient
328.15 K | 0.399
338.15 K | 0.411
348.15 K | 0.421
358.15 K | 0.432
